Converted amounts (≈) assume the structure as drawn.
Tests used:
T24 cells = experiment: Mitomycin C IC50, T24 cells; assay type: cell-based, Human; conditions: 1x fold IC50 treatment concentration
5637 cells = experiment: Mitomycin C IC50, 5637 cells; assay type: cell-based, Human; conditions: 1x fold IC50 treatment concentration
KU19-19 cells = experiment: Mitomycin C IC50, KU19-19 cells; assay type: cell-based, Human; conditions: 1x fold IC50 treatment concentration
ICAM-1 [1] = experiment: QPCR for ICAM-1 expression after Mitomycin C; assay type: cell-based, Human; conditions: 5637 cancer cell line exposed to Mitomycin C
Experimental: (§1) FIGS. 4A-B: QPCR for ICAM-1/DAF expression. FIG. 4a) On 5637 & T24 cancer cell lines 24 hrs after irradiation (Gy 4-10). FIG. 4b) On 5637 cancer cell line exposed to Mitomycin C.
(§2) Exposure to the chemotherapy agent Mitomycin C, up-regulates both ICAM-1 and DAF at the RNA level (FIG. 4b). To mimic patient exposure to Mitomycin C T24, RU19-19 and 5637 cells were pulsed with drug for 1, 3, 7, 24 hrs and ICAM-1 and DAF expression was measured by FACS analysis at 24 hrs.

DAF [2] = experiment: QPCR for DAF expression after Mitomycin C; assay type: cell-based, Human; conditions: 5637 cancer cell line exposed to Mitomycin C
Experimental: as §1, §2

ICAM-1 [3] = experiment: FACS analysis of ICAM-1 (CD54) expression after Mitomycin C pulse; assay type: cell-based, Human
Experimental: (§3) FIG. 5: FACS analysis of ICAM-1/DAF express in bladder cancer cell line pulse with Mitomycin C (×0.5 fold IC50×1, ×2) for 1, 3, 7 and 24 hrs.
(§4) In brief, bladder cancer cells were plated at 5×10^5 cells per well (2 ml) of a 6 well tray and incubated at 37° C. for 24 hrs. The cells were treated with Mitomycin C (2× fold IC50 1× fold IC50, 0.5× fold IC50) and each concentration incubated at 37° C. for 1, 3, 7 and 24 hrs. Therefore T24 cells were treated 0.75, 0.375, 0.1876 ug/ml Mitomycin C, 5637 cells were treated with 0.68, 0.34, 0.17 ug/ml Mitomycin C and KU19-19 cells were treated with 1.4876, 0.7438, 0.3719 ug/ml. The cells were trypsinised and centrifuged for 3 mins at 1500 rpm to a pellet and re-suspended in FACS Buffer (PBS containing 10% BSA and 1% sodium azide). 100 ul of cells were added to appropriate wells in a 96-well round-bottomed plate. Antibodies were prepared at 1:10 in FACS buffer CD54 PE (BD: 347977) mIgG2b, CD55 PE (BD: 555694) mIgG2a and Isotype controls. […] Samples were read on a MACSQuant™ Analyzer (Bench top flow cytometer).
as §2

DAF [4] = experiment: FACS analysis of DAF (CD55) expression after Mitomycin C pulse; assay type: cell-based, Human; conditions: T24, RU19-19 and 5637 cells; short pulse (1-3 hrs); measured at 24 hrs
Experimental: as §3, §4, §2

CVA21 = CVA21 viral replication in 5637 cells on exposure to MMC (TCID50 titration on SK-MEL-28); assay type: cell-based; conditions: CVA21 MOI 3, 0.4375 or 0.875 ug/ml Mitomycin C, 24 or 48 hours
Experimental: Monolayers of 5637 bladder cancer cells were plated and incubated at 37° C./5% CO2 overnight. The media was removed, and CVA21 added at an MOI of 3 in 10% FCS medium containing 0, 0.4375 or 0.875 ug/ml Mitomycin C. The cells were then incubated at 37° C. for 24 or 48 hours. The plates were then frozen at −80° C. for 1 hour or o/n and then thawed after which cell CVA21 lysate was serially diluted 1:10 in 2% DMEM. The different concentrations of lysate were then added to SK-MEL-28 cells which had previously been plated at 1×10^4 cells per well (100 μL) in a 96 well plate in 10% DMEM. The assay was then incubated at 37° C. for 5 days, after which the media was removed from the cells and 100 ul of 0.1% Glutaldehyde (Sigma) in PBS was added. After an incubation of 10 mins at RT, the Glutaldehyde solution was removed and 100 ul of 0.1% w/v Crystal Violet solution (in 20% Ethanol) was added in order to visualise the cells. Following another incubation of 10 mins at RT the excess Crystal Violet was removed with tap water. TCID50 was calculated by the Spearman & Kärber algorithm as described in Hierholzer & Killington (1996), Virology Methods Manual, p. 374.

## CO[C@@]12[C@H](COC(N)=O)C3=C(C(=O)C(C)=C(N)C3=O)N1C[C@@H]1N[C@@H]12 [Mitomycin C, mitomycin C]
T24 cells
  IC50: 0.375 µg/mL (≈ 1.12 µM)
5637 cells
  IC50: 0.34 µg/mL (≈ 1.02 µM)
KU19-19 cells
  IC50: 0.7438 µg/mL (≈ 2.22 µM)
ICAM-1 [1]
  ICAM-1 expression at the RNA level: up-regulates
DAF [2]
  DAF expression at the RNA level: up-regulates
ICAM-1 [3]; T24, RU19-19 and 5637 cells, short pulse (1-3 hrs), measured at 24 hrs
  ICAM-1 expression by FACS: strongly amplified
ICAM-1 [3]; one hour pulse of MMC, present from at least 4 hours after exposure
  ICAM-1 amplification: strong ICAM-1 amplification
DAF [4]
  DAF expression by FACS: strongly amplified
CVA21
  effect on CVA21 viral replication: enhanced viral replication

From patent US20190134120A1, “METHODS FOR THE TREATMENT OF BLADDER CANCER” (Viralytics Limited, priority 2013, published 2019)
